Reference: patent publication US8226943B2, “Antibodies to notch receptors” (OncoMed Pharmaceuticals, Inc., priority 2008, dated 2012)

How the values were obtained:
PE13 breast tumors = assay: Microarray analysis of PE13 breast tumors treated with taxol or 59R1 plus taxol; format: in vivo, mice; settings: PE13, 59R1 Taxol vs. Taxol
Experimental: In addition to investigating the effects of 59R1 in tumors and the effect on CSC frequency, gene changes were studied following 59R1 treatment in combination with taxol. The experiment was performed in PE13 breast tumors where a decrease in CSC frequency after treatment with 59R1 alone or 59R1 plus taxol treatment had previously been observed (and described herein). Microarray analysis was performed on tumors from the same experiment where limiting dilution analyses of PE13 were carried out for CSC quantification (FIG. 19). Animals bearing PE13 breast tumors were treated three weeks with 59R1 plus taxol, control and taxol prior to harvesting for microarray analysis. Mean differential expression values for taxol vs. control and 59R1 plus taxol vs. taxol treated animals (3 animals per group) were calculated.

human Notch3 = human Notch3 (Homo sapiens, UniProt Q9UM47); assay: FACS binding to transiently transfected HEK-293 cells, human Notch3; set-up: expressed in transfected cells
Experimental: The ability of the 59R1 IgG2 antibody to cross-react with other Notch receptors was determined by FACS assay using HEK-293 cells transiently transfected with the human Notch1, Notch2, Notch3 or Notch4 expression plasmid and green fluorescent protein (GFP) as a transfection control. GFP positive cells indicated expression of the transgene. The 59R1 IgG2 was added to the cells at 2 μg/ml and detected by PE-conjugated goat anti-human Fc gamma specific (Jackson Immunochemicals). All Notch constructs were full length.

[1] = system: hJAG2-induced Notch2 signaling; assay: Luciferase reporter assay, hJAG2-induced Notch2 signaling in Hela cells; format: cell-based, human; settings: 40 μg/ml
Experimental: (§1) Luciferase reporter assays were used to assay the 59R1 antibody for its ability to block hDLL4-, hJAG1-, and hJAG2-induced Notch2 signaling.
(§2) Hela cells that stably overexpress human Notch2 were transiently transfected with firefly luciferase with a synthetic 8×CBS promoter, pSPORT6 MAML-1, and Renilla luciferase-CMV as a transfection control. Cells were incubated with either 200 ng of immobilized hJAG1 (R&D systems) or hJAG2 (R&D systems) for 16 hours and then assayed using Dual-Glo (Promega) according to the manufacturer's instructions. 59R1 IgG2 antibody was at a concentration of 40 μg/ml. The gamma secretase inhibitor (GSI) dibenzazepine (DBZ) was used as a control at 1 μM.

[2] = system: breast tumor xenograft line OMP-B39; assay: OMP-B39 breast tumor xenograft growth; format: in vivo, NOD/SCID mice; settings: established tumors, 15 mg/kg once a week
Experimental: The 59R1 IgG2 antibody was also tested in vivo in the breast tumor xenograft lines OMP-B34, OMP-B39, OMP-B44, PE13, and UM-T1, the pancreas tumor xenograft line OMP-PN8, and the colon tumor xenograft line OMP-C8. These tumor xenograft lines were established by adhering to procedures described in Al-Hajj et al., 2003, Proc. Natl. Acad. Sci. USA, 100:3983-3988. Female NOD/SCID immuno-compromised mice 7-10 weeks old were used for the establishment of the breast tumor xenografts and male NOD/SCID mice were used for the OMP-Pn8 and OMP-C8 tumor-models (Harlan, Indianapolis, Ind.). The 59R1 IgG2 antibody was also tested in vivo in a Colo-205 colon tumor xenograft model. Female immunodeficient bg/nu XID mice on a Swiss CD-1 background were used for the Colo-205 xenograft tumor model. In case of the breast cancer models, slow-releasing estrogen pellets (0.36 mg) had to be implanted. Mice were subcutaneously injected on the right flank with 50,000 (OMP-B34, OMP-B39, OMP-B44, PE13, and UM-T1) or 1×10^7 (Colo-205) viable cells, respectively, in a mixture of PBS (without magnesium or calcium) and Matrigel at a 1:1 ratio. […] Antibodies were administered weekly and tumors measured twice weekly. […] Tumor volume was calculated as described Al-Hajj et al. (2003). Data are expressed as the mean and the mean±S.E.M. Group means were compared using Student's two-tailed, unpaired t-test. […]

[3] = system: hDLL4-induced Notch2 signaling; assay: Luciferase reporter assay, hDLL4-induced Notch2 signaling in Hela cells; format: cell-based, human; settings: antibody titrated from 40 μg/ml
Experimental: as §1
as §2, with “promoter (Ong et al., 2006, J. of Biological Chemistry, 281:5106-5119),” for “promoter,”, “100” for “either 200”, “hDLL4” for “hJAG1”, “with the indicated antibodies” for “or hJAG2 (R&D systems)”, “Control” for “59R1 IgG2”, “μg/ml. 59R1 IgG2 antibody was titrated, starting at 40 μg/ml, and then diluted by one-fourth.” for “μg/ml.”

[4] = system: Colo-205 colon tumors and PE-13 breast tumors; assay: Pimonidazole staining for hypoxic regions in treated tumors; format: in vivo, mice
Experimental: Staining for hypoxic regions was performed in Colo-205 colon tumors and PE-13 breast tumors that had been treated either with 59R1 IgG2 antibody or with 1B711 control antibody. The staining was performed as described in Ridgway et al., 2006, Nature 444:1083-1087. Briefly, to measure hypoxia, pimonidazole-hydrochloride (HypoxyProbe, NPI, Burlington, Mass.), which forms long-lived protein adducts at partial pressure of oxygen less than approximately 10 mm Hg, was injected intraperitoneally at 60 mg/kg 1 hr prior to sacrifice. Tumors were then processed for histological analysis, and tumor sections were stained using anti-pimonidazole antibody following manufacturer's protocol (NPI). Photographs were taken using a BX51 microscope (Olympus, Center Valley, Pa.).
AF594-conjugated goat anti-rat F(ab′)2 was used to detect anti-CD31 antibody and FITC-conjugated goat anti-rabbit antibody was used to detect anti-pimonidazole antibody.

Sequence of human Notch3 (Q9UM47 40-2321): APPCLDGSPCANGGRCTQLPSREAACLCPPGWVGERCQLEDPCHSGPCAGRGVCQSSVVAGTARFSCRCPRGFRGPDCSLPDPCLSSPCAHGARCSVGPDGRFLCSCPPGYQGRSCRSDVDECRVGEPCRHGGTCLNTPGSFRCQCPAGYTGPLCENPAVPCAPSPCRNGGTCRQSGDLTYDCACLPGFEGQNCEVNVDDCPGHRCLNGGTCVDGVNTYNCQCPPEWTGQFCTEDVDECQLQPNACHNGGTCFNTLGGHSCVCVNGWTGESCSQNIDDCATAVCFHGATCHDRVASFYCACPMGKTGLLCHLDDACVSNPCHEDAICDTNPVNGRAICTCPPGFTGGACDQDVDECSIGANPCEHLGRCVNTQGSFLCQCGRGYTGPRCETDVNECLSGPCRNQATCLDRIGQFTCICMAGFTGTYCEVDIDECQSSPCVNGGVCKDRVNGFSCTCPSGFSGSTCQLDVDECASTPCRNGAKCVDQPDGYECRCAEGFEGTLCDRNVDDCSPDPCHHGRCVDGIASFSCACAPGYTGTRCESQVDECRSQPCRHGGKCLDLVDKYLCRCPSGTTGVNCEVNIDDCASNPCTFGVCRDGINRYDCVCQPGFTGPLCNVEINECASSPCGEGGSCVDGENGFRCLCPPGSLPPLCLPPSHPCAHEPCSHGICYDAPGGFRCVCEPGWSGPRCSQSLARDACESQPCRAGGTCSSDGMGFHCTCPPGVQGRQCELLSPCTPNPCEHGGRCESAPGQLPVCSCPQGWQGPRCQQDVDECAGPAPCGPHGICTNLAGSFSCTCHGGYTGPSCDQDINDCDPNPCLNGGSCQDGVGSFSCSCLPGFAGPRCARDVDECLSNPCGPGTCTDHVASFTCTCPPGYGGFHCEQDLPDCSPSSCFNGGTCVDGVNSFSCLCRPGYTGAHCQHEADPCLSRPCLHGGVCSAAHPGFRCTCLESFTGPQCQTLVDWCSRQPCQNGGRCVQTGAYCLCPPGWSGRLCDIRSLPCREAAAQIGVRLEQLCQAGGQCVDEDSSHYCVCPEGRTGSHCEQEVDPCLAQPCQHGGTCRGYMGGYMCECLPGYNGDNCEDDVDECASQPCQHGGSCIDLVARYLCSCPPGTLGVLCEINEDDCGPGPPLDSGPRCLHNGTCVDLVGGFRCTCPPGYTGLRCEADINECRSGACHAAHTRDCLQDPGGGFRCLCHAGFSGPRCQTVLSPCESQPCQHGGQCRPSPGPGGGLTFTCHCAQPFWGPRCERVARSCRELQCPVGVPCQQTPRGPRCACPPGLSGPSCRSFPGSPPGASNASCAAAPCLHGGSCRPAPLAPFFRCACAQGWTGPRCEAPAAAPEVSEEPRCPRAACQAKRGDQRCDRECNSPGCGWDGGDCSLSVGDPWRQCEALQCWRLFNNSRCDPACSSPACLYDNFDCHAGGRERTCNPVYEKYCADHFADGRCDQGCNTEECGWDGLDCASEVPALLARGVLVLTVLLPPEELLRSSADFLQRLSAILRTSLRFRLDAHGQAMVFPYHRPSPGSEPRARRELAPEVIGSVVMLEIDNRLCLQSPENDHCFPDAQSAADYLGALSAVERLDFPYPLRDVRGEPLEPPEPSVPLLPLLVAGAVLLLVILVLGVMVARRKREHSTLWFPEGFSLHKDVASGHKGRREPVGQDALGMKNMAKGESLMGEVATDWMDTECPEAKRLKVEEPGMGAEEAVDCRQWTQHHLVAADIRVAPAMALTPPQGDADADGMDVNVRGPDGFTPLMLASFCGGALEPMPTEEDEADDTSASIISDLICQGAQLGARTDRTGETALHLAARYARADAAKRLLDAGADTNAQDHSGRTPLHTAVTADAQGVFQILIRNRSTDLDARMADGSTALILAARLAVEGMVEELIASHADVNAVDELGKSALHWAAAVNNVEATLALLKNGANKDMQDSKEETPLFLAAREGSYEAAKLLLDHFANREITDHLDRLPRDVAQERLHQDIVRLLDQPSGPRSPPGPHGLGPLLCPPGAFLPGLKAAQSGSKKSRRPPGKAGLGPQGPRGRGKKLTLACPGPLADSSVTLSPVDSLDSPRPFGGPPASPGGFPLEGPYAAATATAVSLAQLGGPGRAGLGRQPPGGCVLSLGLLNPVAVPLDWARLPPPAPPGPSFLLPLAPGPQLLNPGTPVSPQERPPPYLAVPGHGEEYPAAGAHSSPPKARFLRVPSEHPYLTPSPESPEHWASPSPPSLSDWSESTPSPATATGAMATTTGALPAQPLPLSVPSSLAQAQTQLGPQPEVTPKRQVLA

binding to full-length human Notch3 (FACS) (human Notch3): specifically binds
Substance: 59R1: human IgG2 antibody binding Notch2 and Notch3; heavy and light chain SEQ ID NO:16 and 18; ATCC PTA-9547
Fold BMPR1B (PE13 breast tumors): −4.3 | Fold BNIP3 (PE13 breast tumors): 1.8 | Fold EGLN3 (PE13 breast tumors): 11.9 | Fold HSPB6 (PE13 breast tumors): −1.8 | Fold ITGAM (PE13 breast tumors): −2.5 | Fold LHX8 (PE13 breast tumors): −4.4 | Fold NDRG1 (PE13 breast tumors): 6.4 | Fold RARRES1 (PE13 breast tumors): −2.2 | Fold RARRES3 (PE13 breast tumors): −1.7 | Fold RBP2 (PE13 breast tumors): −2.2 | Fold XAF1 (PE13 breast tumors): −1.5 | hJAG2-induced Notch2 reporter activity [1]: inhibit | B39 breast cancer growth relative to control antibody [2]: inhibit breast cancer growth | hDLL4-induced Notch2 reporter activity [3]: inhibit | hypoxic regions (anti-pimonidazole antibody) versus 1B711 treated tumors ([4]; Colo-205 and PE13 tumors): significantly more pronounced | number of CD31-positive cells ([4]; treated tumors versus 1B711): remained unchanged
